Data reported in paper PMC11249646, “Small-Molecule Disruptors of the Interaction between Calcium- and Integrin-Binding Protein 1 and Integrin αIIbβ3 as Novel Antiplatelet Agents” (ACS Pharmacology & Translational Science, 2024).
pIC50: −log10 of the molar value. Where two headings read alike, the source gives them in different places.

How the values were obtained:
Type in all cases: binding
[1] = target: T1, CIB1 and αIIb interaction (GST-CIB1 : F-αIIb peptide) (Homo sapiens, UniProt Q99828); assay: FP assay, 384-well format (screen); parameters: 384-well SCREEN Efficacy (%): concentration or dose not given beside the values; conditions: for pIC50: read-out: 384-well SCREEN IC50
T1 construct: made in house; host or cells: BL-21 plus RIL cells (E. coli)
T1 sequence (Q99828 1-191): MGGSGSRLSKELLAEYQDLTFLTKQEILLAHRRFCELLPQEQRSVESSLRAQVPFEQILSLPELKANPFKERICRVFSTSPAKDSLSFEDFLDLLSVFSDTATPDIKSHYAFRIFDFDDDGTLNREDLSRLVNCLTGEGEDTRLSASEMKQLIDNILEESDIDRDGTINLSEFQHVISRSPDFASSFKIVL

[2] = target: T2, GST-CIB1 : F-scrambled peptide (Homo sapiens, UniProt Q99828); assay: FP scrambled-peptide counter screen, 384-well format; conditions: for pIC50: read-out: 384-well COUNTERSCREEN IC50
T2 construct: made in house; host or cells: BL-21 plus RIL cells (E. coli)
T2 sequence (Q99828 1-191): T1 sequence (Q99828 1-191)

[3] = target: T3, CIB1 and αIIb interaction (CIB1-GST : F-αIIb peptide) (Homo sapiens, UniProt Q99828); assay: FP assay, 1536-well qHTS format (primary and confirmatory screen); conditions: for CONFIRMATORY SCREEN Confirm?: YES/NO call; for CONFIRMATORY SCREEN Curve Class: qHTS curve class
T3 construct: made in house; host or cells: BL-21 plus RIL cells (E. coli)
T3 sequence (Q99828 1-191): T1 sequence (Q99828 1-191)

[4] = target: T2, GST-CIB1 : F-scrambled peptide; assay: FP scrambled-peptide counter screen, 1536-well format; conditions: scrambled-peptide counterscreen; for COUNTERSCREEN Confirm?: YES/NO call; for COUNTERSCREEN Curve Class: qHTS curve class
[5] = confirmatory screen, negative sign = inhibitory curve
[6] = confirmatory screen, negative = inhibition
[7] = confirmatory screen, read-out: CONFIRMATORY SCREEN IC50
[8] = qHTS primary screen hits, Table S2, negative = inhibition
[9] = qHTS primary screen hits, Table S2, read-out: IC50
[10] = qHTS primary screen hits, Table S2, negative sign = inhibitory curve, several classes where COUNT > 1
[11] = qHTS FP screen hits, Table S2, negative = inhibition
[12] = qHTS FP screen hits, Table S2, read-out: IC50

Row | Structure (SMILES) | 384-well SCREEN Efficacy (%) ([1]; F-αIIb peptide) | 384-well SCREEN Confirm? ([1]; F-αIIb peptide, YES/NO) | pIC50 ([1]; F-αIIb peptide) | 384-well COUNTERSCREEN Efficacy (%) ([2]; F-scrambled peptide) | pIC50 ([2]; F-scrambled peptide) | CONFIRMATORY SCREEN Confirm? ([3]; confirmatory screen) | CONFIRMATORY SCREEN Curve Class [3, 5] | CONFIRMATORY SCREEN Efficacy (%) [3, 6] [%] | pIC50 [3, 7] | Efficacy (%) [3, 8] [%] | pIC50 [3, 9] | COUNTERSCREEN Efficacy (%) [4] [%] | COUNTERSCREEN Confirm? [4] | COUNTERSCREEN Curve Class [4] | Curve Class [3, 10] | Efficacy (%) [3, 11] [%] | pIC50 [3, 12] | further results
1 | O=C(Cc1ccc(Cl)c(Cl)c1)Nc1ccc(S(=O)(=O)Nc2ccon2)cc1.O=C(O)C(F)(F)F [NCGC00244858-03] | 35 | YES | 5.05 | 43 | 4.60 | YES | -1.4 | -39 | 4.65 | -27 | 5.49 | -10 | YES | 4 |  |  |  | Curve Class ([3]; qHTS primary screen hits, Table S2, negative sign = inhibitory curve): -1.4
2 | Cc1cc(SCc2sc(-c3ccc(Cl)c(Cl)c3)nc2C)ccc1OCc1nnn[nH]1.O=C(O)C(F)(F)F [NCGC00344871-01] | 42 |  | < 3.92 | 167 | 4.35 | YES | -1.2 | -63 | 4.80 | -38 | 4.75 | 204 | YES |  | -1.2 |  |  | pIC50 ([4]; read-out: COUNTERSCREEN IC50): 4.10
3 | C=CCNc1oc(-c2cccc3ccccc23)nc1C#N.O=C(O)C(F)(F)F [NCGC00068824-04] | 71 | YES | 5.40 | 51 | 5.35 | YES | -1.2 | -78 | 4.80 |  |  | -19 | YES | 4 |  | -38 | 4.75 | Curve Class ([3]; qHTS FP screen hits, Table S2, one class per curve where COUNT > 1, negative sign = inhibitory curve): -1.2
4 | CCOC(=O)c1c(NC(=O)C2CC(Cl)=CCC2C(=O)O)sc2c1CCCCC2.O=C(O)C(F)(F)F (centres unmarked) [NCGC00238648-01] | 15 |  | < 3.92 | 12 | < 3.92 | YES | -2.2 | -59 |  |  |  | 16 | YES | 4 |  | -22 | 4.45 | 
5 | COc1nn(CSP(=S)(OC)OC)c(=O)s1 [NCGC00163724-03] | 80 | YES | 4.80 | 60 | < 3.92 | YES | -1.4 | -47 | 4.70 | -47 | 4.23 | 0 | YES | 4 | -1.2 |  |  | 384-well COUNTERSCREEN Confirm? ([2]; F-scrambled peptide, *: Curve in opposite direction): YES
6 | O=[N+]([O-])c1ccc2c(c1)S(=O)(=O)C=C2 [NCGC00167848-02] |  |  | 3.92 |  | < 3.92 |  |  |  |  |  | 6.15 |  |  |  |  |  |  | 384-well SCREEN Confirm? [1]: YES; 384-well SCREEN Efficacy (%) [1]: 50%; 384-well COUNTERSCREEN Efficacy (%) [2]: 45%; Curve Class [3]: -1.4; Efficacy (%) [3]: -37%
